Data on eight compounds can be found in ChEMBL document CHEMBL5291721, “A preclinical secondary pharmacology resource illuminates target-adverse drug reaction associations of marketed drugs” (Nat Commun, 2023).

By AC50 is commonly meant the concentration at which the activity in the assay is half-maximal.

The target in one assay is T1, Progesterone receptor (Homo sapiens, UniProt P06401).
T1 sequence (P06401 whole entry): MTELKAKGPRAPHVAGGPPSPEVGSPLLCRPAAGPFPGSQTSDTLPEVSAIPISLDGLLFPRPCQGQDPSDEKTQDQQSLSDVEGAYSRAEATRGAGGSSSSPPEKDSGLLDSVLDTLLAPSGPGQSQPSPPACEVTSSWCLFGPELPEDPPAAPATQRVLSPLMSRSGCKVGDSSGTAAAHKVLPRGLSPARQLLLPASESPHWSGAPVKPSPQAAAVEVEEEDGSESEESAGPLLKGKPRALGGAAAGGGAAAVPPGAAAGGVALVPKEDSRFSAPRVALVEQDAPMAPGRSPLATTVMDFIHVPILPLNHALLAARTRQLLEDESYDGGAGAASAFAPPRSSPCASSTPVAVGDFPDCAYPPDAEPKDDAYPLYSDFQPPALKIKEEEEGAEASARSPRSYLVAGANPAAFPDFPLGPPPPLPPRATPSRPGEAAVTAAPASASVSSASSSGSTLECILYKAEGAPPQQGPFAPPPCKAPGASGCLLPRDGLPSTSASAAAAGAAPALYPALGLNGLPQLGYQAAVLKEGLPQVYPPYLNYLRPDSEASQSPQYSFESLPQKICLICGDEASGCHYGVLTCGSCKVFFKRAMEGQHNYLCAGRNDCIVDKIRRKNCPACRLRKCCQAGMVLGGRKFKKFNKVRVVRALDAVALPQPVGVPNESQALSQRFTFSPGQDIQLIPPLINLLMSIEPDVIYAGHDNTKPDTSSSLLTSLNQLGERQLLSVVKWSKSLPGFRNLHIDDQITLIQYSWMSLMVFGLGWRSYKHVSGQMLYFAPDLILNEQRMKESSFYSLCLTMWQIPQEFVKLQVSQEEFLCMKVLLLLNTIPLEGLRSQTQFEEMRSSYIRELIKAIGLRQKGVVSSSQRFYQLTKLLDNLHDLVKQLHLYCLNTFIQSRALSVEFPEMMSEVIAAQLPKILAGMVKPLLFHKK
It counts as functional.

For a further assay, the target named is T2, Glucocorticoid receptor (Homo sapiens, UniProt P04150).
T2 sequence (P04150 whole entry): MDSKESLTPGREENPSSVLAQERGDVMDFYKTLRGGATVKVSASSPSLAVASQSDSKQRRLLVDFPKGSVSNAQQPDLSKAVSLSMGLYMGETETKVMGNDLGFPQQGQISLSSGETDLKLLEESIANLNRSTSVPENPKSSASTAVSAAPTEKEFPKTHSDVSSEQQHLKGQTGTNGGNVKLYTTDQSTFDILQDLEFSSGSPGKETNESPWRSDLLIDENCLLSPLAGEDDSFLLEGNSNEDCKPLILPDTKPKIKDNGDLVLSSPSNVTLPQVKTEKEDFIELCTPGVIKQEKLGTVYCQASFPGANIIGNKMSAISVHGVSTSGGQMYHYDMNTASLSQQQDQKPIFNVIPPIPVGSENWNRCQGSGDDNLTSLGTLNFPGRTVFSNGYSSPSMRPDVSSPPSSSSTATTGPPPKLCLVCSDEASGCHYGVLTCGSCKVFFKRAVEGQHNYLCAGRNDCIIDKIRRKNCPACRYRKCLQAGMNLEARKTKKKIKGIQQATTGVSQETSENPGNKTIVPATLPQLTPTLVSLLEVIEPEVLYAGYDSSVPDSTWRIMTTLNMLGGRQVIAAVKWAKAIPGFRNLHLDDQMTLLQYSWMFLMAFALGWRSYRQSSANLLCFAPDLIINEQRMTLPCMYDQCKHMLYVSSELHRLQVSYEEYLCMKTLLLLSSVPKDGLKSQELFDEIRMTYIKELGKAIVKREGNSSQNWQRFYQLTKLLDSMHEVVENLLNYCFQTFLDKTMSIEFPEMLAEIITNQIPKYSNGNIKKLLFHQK

A further assay has as its target Histamine H3 receptor (Homo sapiens, UniProt Q9Y5N1).
Assay [1] has as its target Growth hormone secretagogue receptor type 1 (Homo sapiens, UniProt Q92847).
Assay [2] deals with T3, Muscarinic acetylcholine receptor M2 (Homo sapiens, UniProt P08172).
T3 sequence (P08172 whole entry): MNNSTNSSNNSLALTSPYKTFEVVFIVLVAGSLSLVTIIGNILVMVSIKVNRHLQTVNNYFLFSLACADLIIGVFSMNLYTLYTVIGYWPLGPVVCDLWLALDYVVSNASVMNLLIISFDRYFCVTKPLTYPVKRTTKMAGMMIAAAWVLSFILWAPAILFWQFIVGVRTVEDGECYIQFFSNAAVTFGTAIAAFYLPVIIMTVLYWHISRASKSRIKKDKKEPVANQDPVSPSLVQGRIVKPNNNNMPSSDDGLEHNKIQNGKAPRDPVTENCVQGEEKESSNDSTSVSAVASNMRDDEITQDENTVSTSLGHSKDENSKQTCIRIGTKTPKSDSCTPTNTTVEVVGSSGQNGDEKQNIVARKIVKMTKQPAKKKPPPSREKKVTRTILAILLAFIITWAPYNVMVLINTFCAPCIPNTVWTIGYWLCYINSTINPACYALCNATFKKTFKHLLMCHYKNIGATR
It counts as functional, cell-based.

In a further assay the target is Adenosine receptor A2a (Homo sapiens, UniProt P29274).
Adenosine receptor A2a, sequence (P29274 whole entry): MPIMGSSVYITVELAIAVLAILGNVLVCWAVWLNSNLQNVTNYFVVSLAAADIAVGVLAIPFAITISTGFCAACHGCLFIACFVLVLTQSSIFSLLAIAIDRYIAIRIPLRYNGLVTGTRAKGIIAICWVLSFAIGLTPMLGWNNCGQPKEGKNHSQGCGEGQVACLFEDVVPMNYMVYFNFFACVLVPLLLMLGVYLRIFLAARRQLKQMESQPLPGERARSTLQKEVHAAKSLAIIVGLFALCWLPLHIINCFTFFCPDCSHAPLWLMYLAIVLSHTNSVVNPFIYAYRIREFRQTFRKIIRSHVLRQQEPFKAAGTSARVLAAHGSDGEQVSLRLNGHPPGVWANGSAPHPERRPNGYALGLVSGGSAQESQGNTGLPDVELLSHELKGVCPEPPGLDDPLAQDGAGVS
Assay [3] addresses T4, 5-hydroxytryptamine receptor 1A (Homo sapiens, UniProt P08908).
T4 sequence (P08908 whole entry): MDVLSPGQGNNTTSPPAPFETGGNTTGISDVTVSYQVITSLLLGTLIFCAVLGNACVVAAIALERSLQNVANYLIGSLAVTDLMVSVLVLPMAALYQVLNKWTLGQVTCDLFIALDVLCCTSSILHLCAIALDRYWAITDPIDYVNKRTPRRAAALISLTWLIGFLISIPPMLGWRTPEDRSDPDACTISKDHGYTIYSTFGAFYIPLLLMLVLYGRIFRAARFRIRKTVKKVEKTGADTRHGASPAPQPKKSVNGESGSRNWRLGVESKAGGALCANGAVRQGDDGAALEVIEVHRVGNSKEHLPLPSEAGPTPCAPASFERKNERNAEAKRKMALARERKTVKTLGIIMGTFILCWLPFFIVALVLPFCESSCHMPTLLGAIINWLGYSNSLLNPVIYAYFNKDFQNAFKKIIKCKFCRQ
It counts as functional, cell-based.

For assay [4], the target named is Voltage-dependent L-type calcium channel subunit alpha-1C (Rattus norvegicus, UniProt P22002). It counts as functional.
Voltage-dependent L-type calcium channel subunit alpha-1C, sequence (P22002 whole entry): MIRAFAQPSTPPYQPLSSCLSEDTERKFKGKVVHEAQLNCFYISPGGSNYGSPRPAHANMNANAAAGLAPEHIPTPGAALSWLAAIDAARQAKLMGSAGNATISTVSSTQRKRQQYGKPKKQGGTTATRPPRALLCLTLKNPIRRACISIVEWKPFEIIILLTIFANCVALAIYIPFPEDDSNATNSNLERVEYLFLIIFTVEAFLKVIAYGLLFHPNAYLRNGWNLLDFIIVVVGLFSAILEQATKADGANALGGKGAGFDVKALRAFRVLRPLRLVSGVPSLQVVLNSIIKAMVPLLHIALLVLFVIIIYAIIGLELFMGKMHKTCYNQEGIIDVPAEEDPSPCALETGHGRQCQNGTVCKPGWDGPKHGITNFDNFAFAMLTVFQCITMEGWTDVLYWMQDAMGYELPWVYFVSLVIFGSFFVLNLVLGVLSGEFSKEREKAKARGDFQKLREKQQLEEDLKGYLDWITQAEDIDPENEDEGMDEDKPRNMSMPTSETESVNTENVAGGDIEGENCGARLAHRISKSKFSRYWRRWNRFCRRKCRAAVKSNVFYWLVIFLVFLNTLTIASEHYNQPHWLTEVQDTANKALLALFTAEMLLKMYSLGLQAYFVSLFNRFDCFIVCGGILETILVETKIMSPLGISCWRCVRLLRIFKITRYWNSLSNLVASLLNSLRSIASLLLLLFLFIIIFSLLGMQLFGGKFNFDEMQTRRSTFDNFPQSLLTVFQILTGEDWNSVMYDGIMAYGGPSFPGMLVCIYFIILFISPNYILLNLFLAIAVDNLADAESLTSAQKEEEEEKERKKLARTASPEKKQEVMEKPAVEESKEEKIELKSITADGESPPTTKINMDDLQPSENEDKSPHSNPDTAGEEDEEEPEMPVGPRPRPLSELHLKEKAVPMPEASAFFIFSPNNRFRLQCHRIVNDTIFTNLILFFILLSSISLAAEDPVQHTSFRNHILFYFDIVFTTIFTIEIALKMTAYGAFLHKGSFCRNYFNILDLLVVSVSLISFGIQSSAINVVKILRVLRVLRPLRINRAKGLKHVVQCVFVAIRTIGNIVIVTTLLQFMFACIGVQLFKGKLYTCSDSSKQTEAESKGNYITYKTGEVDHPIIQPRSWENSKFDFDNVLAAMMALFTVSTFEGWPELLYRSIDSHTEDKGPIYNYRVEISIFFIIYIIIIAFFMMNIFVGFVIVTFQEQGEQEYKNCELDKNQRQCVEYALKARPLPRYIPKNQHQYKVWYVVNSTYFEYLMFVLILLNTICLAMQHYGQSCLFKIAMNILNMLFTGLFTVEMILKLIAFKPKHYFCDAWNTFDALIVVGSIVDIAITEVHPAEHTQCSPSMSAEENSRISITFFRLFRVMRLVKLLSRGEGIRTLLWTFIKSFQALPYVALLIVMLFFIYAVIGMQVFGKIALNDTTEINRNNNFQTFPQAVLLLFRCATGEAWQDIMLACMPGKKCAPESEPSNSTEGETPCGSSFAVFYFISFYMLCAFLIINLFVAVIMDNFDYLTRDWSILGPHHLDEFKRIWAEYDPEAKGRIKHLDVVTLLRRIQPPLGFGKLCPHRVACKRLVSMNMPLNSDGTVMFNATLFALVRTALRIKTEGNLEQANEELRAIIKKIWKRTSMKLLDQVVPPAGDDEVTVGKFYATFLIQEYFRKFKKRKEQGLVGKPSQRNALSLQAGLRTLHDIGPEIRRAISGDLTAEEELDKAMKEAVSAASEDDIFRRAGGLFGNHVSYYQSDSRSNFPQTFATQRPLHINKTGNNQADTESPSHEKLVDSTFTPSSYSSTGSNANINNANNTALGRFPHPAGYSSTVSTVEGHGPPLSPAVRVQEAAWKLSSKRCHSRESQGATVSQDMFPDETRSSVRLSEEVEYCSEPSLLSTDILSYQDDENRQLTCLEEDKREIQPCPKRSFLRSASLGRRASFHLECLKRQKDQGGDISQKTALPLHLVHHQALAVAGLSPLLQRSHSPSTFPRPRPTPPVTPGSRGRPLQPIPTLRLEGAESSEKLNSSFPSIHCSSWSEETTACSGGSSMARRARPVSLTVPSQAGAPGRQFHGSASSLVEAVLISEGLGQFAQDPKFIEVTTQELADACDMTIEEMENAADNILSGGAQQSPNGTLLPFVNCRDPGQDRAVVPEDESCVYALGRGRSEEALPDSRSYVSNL
For assay [5], the target named is Beta-2 adrenergic receptor (Homo sapiens, UniProt P07550).
Beta-2 adrenergic receptor, sequence (P07550 whole entry): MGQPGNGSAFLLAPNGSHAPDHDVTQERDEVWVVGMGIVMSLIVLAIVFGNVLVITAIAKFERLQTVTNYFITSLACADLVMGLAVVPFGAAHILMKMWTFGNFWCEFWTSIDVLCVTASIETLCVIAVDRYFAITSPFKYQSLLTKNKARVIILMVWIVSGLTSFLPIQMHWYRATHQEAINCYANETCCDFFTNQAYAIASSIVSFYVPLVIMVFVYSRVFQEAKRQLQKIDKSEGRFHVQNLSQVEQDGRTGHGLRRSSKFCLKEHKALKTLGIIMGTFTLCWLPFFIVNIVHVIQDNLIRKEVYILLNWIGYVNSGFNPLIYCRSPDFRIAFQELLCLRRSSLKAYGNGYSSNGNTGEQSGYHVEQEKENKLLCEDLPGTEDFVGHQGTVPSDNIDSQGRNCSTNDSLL
The target of assay [6] is T5, Gamma-aminobutyric acid receptor subunit alpha-1 (Rattus norvegicus, UniProt P62813). It counts as functional.
T5 sequence (P62813 whole entry): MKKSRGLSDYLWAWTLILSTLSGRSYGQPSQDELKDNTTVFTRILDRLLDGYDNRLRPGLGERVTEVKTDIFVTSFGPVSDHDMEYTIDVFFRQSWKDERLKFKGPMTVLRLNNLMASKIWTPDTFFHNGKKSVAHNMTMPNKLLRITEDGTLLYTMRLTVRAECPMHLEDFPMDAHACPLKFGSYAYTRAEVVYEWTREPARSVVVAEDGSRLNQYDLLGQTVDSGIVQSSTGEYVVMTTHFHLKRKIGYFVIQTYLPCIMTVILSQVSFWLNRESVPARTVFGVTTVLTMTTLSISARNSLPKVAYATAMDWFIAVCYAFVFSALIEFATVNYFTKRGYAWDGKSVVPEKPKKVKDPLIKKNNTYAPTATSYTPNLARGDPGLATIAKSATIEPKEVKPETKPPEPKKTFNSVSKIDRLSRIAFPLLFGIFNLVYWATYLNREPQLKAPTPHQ
The target of assay [7] is T5, Gamma-aminobutyric acid receptor subunit alpha-1.
Note: assay procedure not described here.

Histamine H3 receptor, sequence (Q9Y5N1 whole entry): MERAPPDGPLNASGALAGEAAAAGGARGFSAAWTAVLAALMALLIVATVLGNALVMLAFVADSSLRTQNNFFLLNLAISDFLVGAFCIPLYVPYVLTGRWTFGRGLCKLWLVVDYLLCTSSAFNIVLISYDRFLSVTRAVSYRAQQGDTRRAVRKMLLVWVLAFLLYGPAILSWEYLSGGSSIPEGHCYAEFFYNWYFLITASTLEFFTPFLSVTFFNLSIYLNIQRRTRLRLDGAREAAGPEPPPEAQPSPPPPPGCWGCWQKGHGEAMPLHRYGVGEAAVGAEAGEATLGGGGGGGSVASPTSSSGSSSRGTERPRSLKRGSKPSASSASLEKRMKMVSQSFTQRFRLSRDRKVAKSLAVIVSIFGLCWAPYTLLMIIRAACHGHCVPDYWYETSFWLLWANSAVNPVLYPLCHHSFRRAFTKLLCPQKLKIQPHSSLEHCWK
Growth hormone secretagogue receptor type 1, sequence (Q92847 whole entry): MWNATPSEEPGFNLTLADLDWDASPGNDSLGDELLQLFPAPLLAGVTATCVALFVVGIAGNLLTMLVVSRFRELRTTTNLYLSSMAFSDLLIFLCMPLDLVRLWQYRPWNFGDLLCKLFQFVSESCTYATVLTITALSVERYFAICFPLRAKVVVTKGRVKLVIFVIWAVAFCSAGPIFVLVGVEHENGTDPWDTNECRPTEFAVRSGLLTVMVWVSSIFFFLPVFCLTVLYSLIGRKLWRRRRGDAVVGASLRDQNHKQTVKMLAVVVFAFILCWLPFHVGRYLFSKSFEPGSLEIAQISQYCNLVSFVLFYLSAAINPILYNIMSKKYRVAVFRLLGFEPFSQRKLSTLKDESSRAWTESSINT

For `CC=CC(=O)N(CC)c1ccccc1C`, the AC50 (on Progesterone receptor; on Glucocorticoid receptor; on Histamine H3 receptor; in assay [1]; in assay [2]; at Adenosine receptor A2a) was greater than 10 µM in each case. For the same compound, the AC50 in assay [3], in assay [4], in assay [5], in [6] and in [7] was greater than 10 µM throughout.
In the case of `O=C(O)CCCCCCNC1c2ccccc2CCc2ccccc21` [AMINEPTINE], the AC50 (at Progesterone receptor; at Glucocorticoid receptor; on Histamine H3 receptor; in [1]; in [2]; on Adenosine receptor A2a) was greater than 30 µM each time. Also, the AC50 in assay [3], in assay [4], in assay [5], in assay [6] and in assay [7] was greater than 30 µM in each case.
For `CCCCCCOc1ccccc1C(N)=O` [EXALAMIDE], the AC50 (on Progesterone receptor; at Glucocorticoid receptor; at Histamine H3 receptor; in assay [1]; at Adenosine receptor A2a; in [3]) was greater than 30 µM each time. The AC50 in [4], in assay [5], in assay [6] and in assay [7] was greater than 30 µM each time.
With `CCc1c(Cl)c(O)c(Cl)c(O)c1C(=O)O[C@H]1[C@H](O)[C@H](OC)[C@H](OC/C2=C\C=C\C[C@H](O)/C(C)=C/[C@H](CC)[C@@H](O[C@@H]3OC(C)(C)[C@@H](OC(=O)C(C)C)[C@H](O)[C@@H]3O)/C(C)=C/C(C)=C/C[C@@H]([C@@H](C)O)OC2=O)O[C@@H]1C` [FIDAXOMICIN], the AC50 was greater than 30 µM at Progesterone receptor; greater than 30 µM at Glucocorticoid receptor; greater than 10 µM at Histamine H3 receptor; greater than 30 µM in [1]; greater than 30 µM at Adenosine receptor A2a; greater than 10 µM in [4]. The AC50 in assay [5], in assay [6] and in [7] was greater than 10 µM each time.
Take `Nc1nc(N)nc(-c2cc(Cl)ccc2Cl)n1` [IRSOGLADINE]: the AC50 (at Progesterone receptor; on Glucocorticoid receptor; at Histamine H3 receptor; in [1]; in assay [2]; at Adenosine receptor A2a) was greater than 30 µM each time. The AC50 in assay [3] and in assay [5] was greater than 30 µM in each case.
As to `O=C(O)/C=C/c1ccc(Cn2ccnc2)cc1` [OZAGREL], the AC50 (on Progesterone receptor; on Glucocorticoid receptor; on Histamine H3 receptor; in assay [1]; in assay [2]; at Adenosine receptor A2a) was greater than 30 µM throughout. Moreover, the AC50 in [3], in assay [4], in [6] and in assay [7] was greater than 30 µM throughout.
Take `Cc1ccc(-n2nccn2)c(C(=O)N2CCN(c3nc4cc(Cl)ccc4o3)CC[C@H]2C)c1` [SUVOREXANT]: the AC50 (on Progesterone receptor; at Glucocorticoid receptor; on Histamine H3 receptor; in assay [1]; in assay [2]; on Adenosine receptor A2a) was greater than 30 µM throughout. The AC50 in assay [3], in assay [5], in assay [6] and in assay [7] was greater than 30 µM in each case.
Take `O=C(NCCNCC(O)COc1ccc(O)cc1)N1CCOCC1` (stereo not drawn) [XAMOTEROL]: the AC50 (at Progesterone receptor; on Glucocorticoid receptor; at Histamine H3 receptor; in [1]; in assay [2]; on Adenosine receptor A2a) was greater than 30 µM each time. Besides, the AC50 in assay [3], in assay [6] and in assay [7] was greater than 30 µM throughout.
